Laboratory results from US20230390352A1, “COMPOSITION COMPRISING SALVIA MILTIORRHIZA EXTRACT AS ACTIVE INGREDIENT FOR PREVENTION AND TREATMENT OF DEPRESSION IN MENOPAUSAL WOMEN” (UNDBIO.CO.,LTD, priority 2020, published 2023).

How the values were obtained:
[1] = stability (content) of ingredients included in the Salvia miltiorrhiza extract on storage; type: physicochemical; conditions: for Content (mg/g) of ingredient after 5 days of storage at room temperature of extract: 5 days at room temperature; for Content (mg/g) of ingredient in Salvia miltiorrhiza extract: before storage
Method: When the Salvia miltiorrhiza extract was stored at 95° C. for 0 hour, 1 hour, 2 hours, 3 hours, 4 hours and 6 hours, in order to confirm whether the stability of 5 types of ingredients of which the female hormone regulatory ability has been confirmed in Example embodiment 2-1 above was maintained, the ingredient contents of the stored samples were analyzed by time. In addition, when the Salvia miltiorrhiza extract was stored at room temperature for 1 day, 2 days, 3 days, 4 days and 5 days, the stability of the ingredients was confirmed through analysis of the contents of 5 types of ingredients included in the Salvia miltiorrhiza extract.
In addition, results of comparing the content of each ingredient included in the Salvia miltiorrhiza extract at various concentrations (0, 50, 70, and 100% ethanol) and the content after 5 days of storage at room temperature were shown together in Table 1 below.

[2] = system: natural aging-induced menopausal animal model; assay: antidepressant efficacy verification experiment in natural aging-induced menopausal animal model (summary); type: in vivo; conditions: antidepressant refractory animal model
Text: Accordingly, the Salvia miltiorrhiza extract of the present disclosure may be administered to patients with resistance to benzodiazepine or imipramine, and may be used to treat depression that is resistant to the drug.

[3] = system: ER (female hormone receptor); assay: female hormone receptor (ER) expression in MCF-7 BUS cell line by real-time PCR; type: cell-based; conditions: each ingredient 10 μg/mL, 72 hours
Method: Ingredients included in the Salvia miltiorrhiza extract obtained in Example embodiment 1 were confirmed, and in ingredients cryptotanshinone, danshensu, isotanshinone, salvianolic acid B, and tanshinone IIA, female hormone regulating ability was confirmed. An MCF-7 BUS cell line used in the experiment was received from Tufts University in the United States, and incubated in a CO2 incubator maintained at 37° C. and 5% CO2 by using a Dulbecco modified eagle medium (DMEM) (Gibco, USA) added with 10% fetal bovine serum (Gibco, USA) and 1% penicillin/streptomycin (Gibco, USA).
In the experiment, in order to evaluate the female hormone regulatory ability, the sensitivity to estrogen, one of the female hormones, was measured using the MCF-7 BUS cell line, and first, the MCF-7 BUS cell line was dispensed at 1×10^5 cells/well in a 60 mm culture dish, and then incubated in a CO2 incubator maintained at 37° C. and 5% CO2.
After incubation for 24 hours, each ingredient was treated at a concentration of 10 μg/mL, and 17β-Estradiol (E2) was treated with 10^−10 M as a positive control.
At this time, each primer was prepared by Takara, and ER was prepared with Forward primer: […] […] A CT value obtained through RT-PCR was converted into ΔCT, and this ΔCT value was analyzed through a change rate of an experimental group with respect to the control group, which was illustrated in FIG. 1.

| SMILES | Content (mg/g) of ingredient after 5 days of storage at room temperature of extract ([1]; extract made with 0% EtOH) [mg/g] | Content (mg/g) of ingredient in Salvia miltiorrhiza extract ([1]; extract made with 0% EtOH) [mg/g] | Content (mg/g) of ingredient after 5 days of storage at room temperature of extract ([1]; extract made with 50% EtOH) [mg/g] | Content (mg/g) of ingredient in Salvia miltiorrhiza extract ([1]; extract made with 50% EtOH) [mg/g] | Content (mg/g) of ingredient after 5 days of storage at room temperature of extract ([1]; extract made with 70% EtOH) [mg/g] | Content (mg/g) of ingredient in Salvia miltiorrhiza extract ([1]; extract made with 70% EtOH) [mg/g] | Content (mg/g) of ingredient after 5 days of storage at room temperature of extract ([1]; extract made with 100% EtOH) [mg/g] | Content (mg/g) of ingredient in Salvia miltiorrhiza extract ([1]; extract made with 100% EtOH) [mg/g] | antidepressant effect in natural aging-induced menopausal animal model [2] | female hormone receptor regulating effect (ER mRNA change rate, FIG. 1) [3] |
| --- | --- | --- | --- | --- | --- | --- | --- | --- | --- | --- |
| Cc1coc2c1C(=O)c1ccc3c(C)cccc3c1C2=O [Isotanshinone] | 0.99 | 2.22 | 5.62 | 12.31 | 12.11 | 14.23 | 10.33 | 12.22 |  |  |
| CN(C)CCCN1c2ccccc2CCc2ccccc21 [imipramine] |  |  |  |  |  |  |  |  | insufficient antidepressant effect |  |
| Cc1coc2c1C(=O)C(=O)c1c-2ccc2c1CCCC2(C)C [Tanshinone IIA] | 0.65 | 1.33 | 4.11 | 5.21 | 4.33 | 7.22 | 5.24 | 8.33 |  |  |
| O=C(O)[C@H](O)Cc1ccc(O)c(O)c1 [Danshensu] | 0.32 | 0.34 | 1.22 | 1.28 | 24.19 | 25.17 | 17.33 | 18.32 |  | most remarkable female hormone receptor regulating effect |
| O=C(/C=C/c1ccc(O)c2c1[C@H](C(=O)O[C@H](Cc1ccc(O)c(O)c1)C(=O)O)[C@@H](c1ccc(O)c(O)c1)O2)O[C@H](Cc1ccc(O)c(O)c1)C(=O)O [Salvianolic acid B] | 18.33 | 21.2 | 26.21 | 38.23 | 23.21 | 33.1 | 15.27 | 20.3 |  |  |
